“Also recorded” adds a separate entry of the source.
B1: CSF: growth factor for Bac1 macrophages; activates Cdc42Hs and Rac1 (protein, UniProt P07141 33-552, looked up)
Macrophage colony-stimulating …: KEVSEHCSHMIGNGHLKVLQQLIDSQMETSCQIAFEFVDQEQLDDPVCYLKKAFFLVQDIIDETMRFKDNTPNANATERLQELSNNLNSCFTKDYEEQNKACVRTFHETPLQLLEKIKNFFNETKNLLEKDWNIFTKNCNNSFAKCSSRDVVTKPDCNCLYPKATPSSDPASASPHQPPAPSMAPLAGLAWDDSQRTEGSSLLPSELPLRIEDPGSAKQRPPRSTCQTLESTEQPNHGDRLTEDSQPHPSAGGPVPGVEDILESSLGTNWVLEEASGEASEGFLTQEAKFSPSTPVGGSIQAETDRPRALSASPFPKSTEDQKPVDITDRPLTEVNPMRPIGQTQNNTPEKTDGTSTLREDHQEPGSPHIATPNPQRVSNSATPVAQLLLPKSHSWGIVLPLGELEGKRSTRDRRSPAELEGGSASEGAARPVARFNSIPLTDTGHVEQHEGSSDPQIPESVFHLLVPGIILVLLTVGGLLFYKWKWRSHRDPQTLDSSVGRPEDSSLTQDEDRQVELPV

Legend:
Format in all cases: cell-based
N1E-115 cells [1] = assay: Cell guidance assay at Laminin/CSPG boundary (axonal guidance); details: for neurite morphology: serum starved cells, FIG. 9A
Protocol: Effect of PAK peptides on neurite morphology. Cells are exposed to control peptide, αP 1*, αP2, βP2, or γP2 and neurite morphology assessed. (B) Cells are plated on coverslips that been treated to create a Laminin/CSGP boundary. After 6 h cells are examined for their ability to project neurites that crossed the substrate boundary. Cells exposed to bioporter coated peptides, (a) αP2, (b) βP2, and (c) γP2. […] Results are means+/−SEM (n=161-263). (C) Cells are exposed to peptides and after 6 h are scored for their ability to cross boundary from Laminin to CSPG.
The coverslips are washed and sterilised and then coated in one of the following ways.
A second layer of laminin is applied as a drop mixed with 1 μg/ml TRITC label. Coverslips are left for 1 hour at RT and then rinsed twice with sterile water before allowing to dry before use. (iii) Attractive/repulsive boundary. Slides are coated with CSPG 5 μg/ml for 1 hour at 37° C. in a humid chamber then rinsed once in sterile H2O and allowed to air dry before the drop of laminin at 10 μg/ml is applied to the centre of the coverslip and left for 1 hour at RT before rinsing twice in sterile water and allowing to dry before use. This coating is also done in reverse with the laminin applied first and then the tenascin or the CSPG applied second.
The cells are then seeded onto the prepared coverslips at 2×10^5 cells in 1 ml in a 35 mm petri dish, in DMEM, 10% FCS, and 1% AB/AM. Cells are allowed to attach overnight. The media is then removed and the coverslips rinsed in serum free media and incubated overnight (18 h) in serum free media. After the starvation the cells are fixed and stained to show the morphology of the cells at the boundary. Only neurites expressing neurofilamant are scored.
After 5 minutes, the cells are washed once with serum free DMEM media and then 1 ml of serum free DMEM is added to the tube containing the peptide and BioPorter mix it is vortexed gently before being added to the cells. The cells are incubated for 4 hours at 37° C. After the 4 hour incubation the cells are then incubated for a further 2 hours in 5% FCS DMEM or for cells undergoing a substrate guidance assay the 2 hour incubation is in serum free DMEM. The cells are fixed and stained.
Neurofilament positive neurites are scored for how they respond to Laminin/CSPG boundary. […] However, neurites do have distinct morphologies (FIG. 9A). Thus α, β and γ PAK are not essential for neurite outgrowth.

N1E-115 cells [2] = assay: Phase contrast time-lapse analysis of filopodia and lamellipodia formation in a gradient of IGF; details: followed for 60 min; FIG. 8C
Protocol: (§1) Cells are starved for 2-3 h and then injected with peptides. Cells are then incubated for 2 h before being stained with phalloiden and examined by confocal microscopy (as described in the materials and methods section). (A) Cells are injected with IgG (a), with αP2 (b), with βP2 (c) and γP2 (d). Bar=10 μM. (B) Cells are exposed to bioporter with peptides and presence of neurites, pronounced filopodia and pronounced lamellipodia/ruffles scored (definitions as in FIG. 7). (C) Cells are either exposed to bioporter reagent coated peptides (αP2 and βP2) and then IGF or serum starvation used to activate cells. For γP2 cells are injected with peptide and stimulated with serum. Filopodia and lamellipodia are scored by using time-lapse phase contrast microscopy. +/−SEM of 3 experiments (n=900). Control peptide is taken from the kinase domain and common to the three PAK isoforms.
Time lapse microscopy is carried out on a heated stage (37° C.) in an atmosphere of humidified air and 5% CO2. Cells are video recorded using a, Axiovert 135 microscope, Palmix TM-6CN video camera and Sony-u-matic V0-5800 PS video recorder. Individual images are captured using Bio-rad COMOS software and manipulated with Adobe photoshop. Confocal microscopy is carried out using a LSM 410 Zeiss scanning microscope with 3 single line lasers at 488 nM (argon), 543 nM and 633 nM, (HeNe). […]

N1E-115 cells [3] = assay: Microinjection of peptides into partially serum starved N1E-115 cells, phalloidin staining and confocal microscopy of cell morphology; details: for effect on formation of lamellipodia, filopodia or neurites concluded from microinjection: FIG. 8A; for cell morphology after peptide microinjection: peptide injected at 10 μg/ml, cells serum starved 2-4 h, FIG. 7A, 8A
Protocol: Cells are starved for 2-3 h and then either injected with peptides (10 μg/ml) or exposed to peptides with bioporter reagent. Cells are incubated for a further 2 h before being stained with phalloiden and examined by confocal microscopy (as described in the materials and methods section). (A) The upper cells is injected with αP1 (a), or all cells injected with αP1*(b), or exposed to αP2 with bioporter reagent (c). […] Results are expressed as means+/−SEM of 3 experiments (n=333-426 cells). […] (D) Cells are exposed to bioporter reagent with αP2 and after 6 h double stained with αPAK and vinculin antibodies; (a) Vinculin/αPAK, (b) Vinculin and (c) αPAK. Bar=10 μM. Control bars are with IgG with bioporter/microinjection.
as §1
Cells are plated out at 1.0×10^5 cells in 1 ml in a 35 mm dish containing 2 laminin coated coverslips. The coverslips are first marked with a grid using a fine permanent marker and then coated with laminin and incubated overnight in DMEM, 10% FCS, 1% AB/AM. The media is replaced with serum free media (DMEM, 1% AB/AM) and the cells starved for 1 hour so that they flattened and are easier to inject. The peptides are injected at 10 μg/ml in PBS, Rat IgG at 1 mg/ml is added to act as a marker for injected cells.
The cells are injected using an Eppendorf microinjection apparatus on an Axioplan inverted microscope equipped with a heated stage maintained at 37° C. and a 5% CO2 chamber. Humidity is maintained by a dish of sterile water inside the CO2 chamber. Cells in a grid square are injected and positive injection checked visually at the time of injection or after fixation and staining for the injected marker. After injection the cells are returned to the incubator for a further 2 hours. Giving a total time without serum of 4 hours.
The only difference between these two peptides being that the latter peptide is phosphorylated on serine and this modification prevents it from binding Nck (Zhao et al., 1998). To investigate the effects of peptides we first serum starve the cells for 2-4 h to activate Cdc42Hs and Rac.

N1E-115 cells [4] = assay: Axonal guidance towards IGF (preliminary experiments); details: unpublished data
Excerpt: In preliminary experiments we have also examined the effect of the PAK peptides on axonal guidance towards IGF in N1E-115 cells.

Bac1 macrophages = assay: Time lapse / microinjection analysis of Bac1 macrophage morphology (CSF, LPA gradients, C3 toxin)
Protocol: (A) Bac1 cells are grown (24 h) in four different ways and then stained with phalloidin to visualise F-actin. With serum alone (a), without CSF/serum (b), with CSF/serum (c), and with CSF alone (d). (B) Cells are starved of CSF for 24 h and then exposed to gradient of CSF (1.32 nM) through a needle. A time lapse sequence is shown over 30 min. (C) Bac1 macrophages are CSF/serum starved for 24 h and then exposed to a gradient of LPA through a needle. A time lapse sequence is shown over 10 min. (D) Bac1 macrophages starved for serum alone and then exposed to a gradient of CSF through a needle and LPA added to the medium. CSF is added in panel (b) followed by LPA. Panels c-f show process retraction on the side of the cell that is not protected by CSF. Arrows in (B) show the formation of filopodia. Arrows in (C) show process retraction. Bar=10 μM. […]
Proteins purified from E. coli and C3 toxin are microinjected in 50 MM Tris pH 7.5, 50 mM NaCl, 5 mM MgCl2 using an Eppendorf microinjector and Axiovert microscope. Successful injection is determined visually at the time of injection and by use of IgG. […]
Time lapse microscopy is carried out on a heated stage (37° C.) in an atmosphere of humidified air and 5% CO2. Cells are video recorded using a, Axiovert 135 microscope, Palmix TM-6CN video camera and Sony-u-matic V0-5800 PS video recorder. […]

Molecule	ability to detect the Laminin/CSPG boundary (N1E-115 cells [1]; FIG. 9C)	neurites crossing over the Laminin/CSPG boundary (N1E-115 cells [1]; control approx. 10%, FIG. 9C)	neurite morphology (N1E-115 cells [1])	formation of filopodia in response to IGF gradient (N1E-115 cells [2])	effect on formation of lamellipodia, filopodia or neurites concluded from microinjection (N1E-115 cells [3])	cell morphology after peptide microinjection (N1E-115 cells [3])	decision making process of moving towards IGF (N1E-115 cells [4])	effect on axonal guidance towards IGF (N1E-115 cells [4])	formation of lamellipodia in response to IGF gradient (N1E-115 cells [2])	protection from LPA mediated process collapse (Bac1 macrophages; CSF via needle, LPA added to medium after 1.5 min, FIG. 2D)	morphological response of Bac1 cells to a gradient of the factor (Bac1 macrophages; gradient through a needle, FIG. 2B, 2C)
SDNGELEDKPPAPPVRMSST [γP2, peptide derived from γPAK]	do not to recognize the boundary	60-70%	smooth and flattened with fan shaped growth cones; also recorded: flattened growth cones and very few filopodia	inhibit	blocks filopodia formation	large fan-shaped lamellipodia with no filopodia	–	–	–	–	–
SDSLDNEEKPPAPPLRMNSN [βP2, peptide derived from βPAK]	not affected	–	branched and spiky with lamellipodia and ruffles inhibited	–	blocks lamellipodia formation	numerous filopodia along a newly formed leading edge with no lamellipodia	does slow down the decision making process	do not affect guidance	inhibit	–	–
B1	–	–	–	–	–	–	–	–	–	can protect the process nearest to the source of CSF from LPA mediated process collapse	induces the formation of filopodia and lamellipodia
